In patent US20260262643A1, “HERBICIDAL BENZOXAZINES” (FMC CORPORATION, priority 2022, published 2026):

Legend:
ragweed [1] = test: Test A preemergence; type: in vivo, Ambrosia artemisiifolia
Summary of the method: (§1)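 Greenhouse pot test, 10 days. Compound (non-phytotoxic solvent, surfactant) sprayed on soil at seeding or on seedlings at one- to two-leaf stage. Visual injury rated 0–100 against untreated plants.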

oat, wild [2] = test: Test A postemergence; type: in vivo, Avena fatua
Description: (§2) Seeds of plant species selected from barnyardgrass (Echinochloa crusgalli), blackgrass (Alopecurus myosuroides), corn (Zea mays), foxtail, giant (giant foxtail, Setaria faberi), goosegrass (Eleusine indica), kochia (Bassia scoparia), oat, wild (wild oat, Avena fatua), pigweed, palmer (palmer amaranth, palmer pigweed, Amaranthus palmeri), Pigweed, Redroot (redroot pigweed, Amaranthus retroflexus), ragweed (common ragweed, Ambrosia artemisiifolia), ryegrass, Italian (italian ryegrass, Lolium multiflorum), soybean (Glycine max), and wheat (Triticum aestivum) were planted into a blend of loam soil and sand and treated preemergence with a directed soil spray using test chemicals formulated in a non-phytotoxic solvent mixture which included a surfactant. At the same time, plants selected from these crops and weed species and also galium (catchweed bedstraw, Galium aparine) and horseweed (Erigeron canadensis) were planted in pots containing the same blend of loam soil and sand and treated with postemergence applications of test chemicals formulated in the same manner. Plants ranged in height from 2 to 10 cm and were in the one- to two-leaf stage for the postemergence treatment. Treated plants and untreated controls were maintained in a greenhouse for 10 days, after which time all treated plants were compared to untreated controls and visually evaluated for injury. Plant response ratings, summarized in Table A, are based on a 0 to 100 scale where 0 is no effect and 100 is complete control. A dash (-) response means no test result.

ducksalad = test: Test B flooded paddy test; type: in vivo, Heteranthera limosa; conditions: 250 g ai/ha, Flood, 13 days, 0 to 100 scale (0 no effect, 100 complete control)
Summary of the method: (§3)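 Visual scores from 0 (no effect) to 100 (complete kill) were assigned 13 days after treatment by comparison with controls. Seedlings had been treated at two leaves by adding compound to floodwater standing 3 cm deep, kept at that level in the greenhouse.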

kochia [3] = test: Test A preemergence; type: in vivo, Bassia scoparia
Summary of the method: as §1

rice = test: Test B flooded paddy test; type: in vivo, Oryza sativa; conditions: 250 g ai/ha, Flood, 13 days, 0 to 100 scale (0 no effect, 100 complete control)
Summary of the method: as §3

ryegrass, Italian [4] = test: Test A preemergence; type: in vivo, Lolium multiflorum
Summary of the method: as §1

oat, wild [5] = test: Test A preemergence; type: in vivo, Avena fatua
Description: as §2

kochia [6] = test: Test A postemergence; type: in vivo, Bassia scoparia
Summary of the method: as §1

foxtail, giant [7] = test: Test A preemergence; type: in vivo, Setaria faberi
Summary of the method: as §1

ryegrass, Italian [8] = test: Test A postemergence; type: in vivo, Lolium multiflorum
Summary of the method: as §1

corn [9] = test: Test A postemergence; type: in vivo, Zea mays
Description: as §2

foxtail, giant [10] = test: Test A postemergence; type: in vivo, Setaria faberi
Summary of the method: as §1

barnyardgrass = test: Test B flooded paddy test; type: in vivo, Echinochloa crus-galli; conditions: 250 g ai/ha, Flood, 13 days, 0 to 100 scale (0 no effect, 100 complete control)
Summary of the method: as §3

ragweed [11] = test: Test A postemergence; type: in vivo, Ambrosia artemisiifolia
Summary of the method: as §1

wheat [12] = test: Test A preemergence; type: in vivo, Triticum aestivum
Description: as §2

sedge, umbrella = test: Test B flooded paddy test; type: in vivo, Cyperus difformis; conditions: 250 g ai/ha, Flood, 13 days, 0 to 100 scale (0 no effect, 100 complete control)
Summary of the method: as §3

pigweed, palmer [13] = test: Test A preemergence; type: in vivo, Amaranthus palmeri
Summary of the method: as §1

goosegrass [14] = test: Test A preemergence; type: in vivo, Eleusine indica
Summary of the method: as §1

blackgrass [15] = test: Test A postemergence; type: in vivo, Alopecurus myosuroides
Summary of the method: as §1

galium = test: Test A postemergence; type: in vivo, Galium aparine
Summary of the method: as §1

soybean [16] = test: Test A postemergence; type: in vivo, Glycine max
Description: as §2

pigweed, palmer [17] = test: Test A postemergence; type: in vivo, Amaranthus palmeri
Summary of the method: as §1

goosegrass [18] = test: Test A postemergence; type: in vivo, Eleusine indica
Summary of the method: as §1

corn [19] = test: Test A preemergence; type: in vivo, Zea mays
Description: as §2

soybean [20] = test: Test A preemergence; type: in vivo, Glycine max
Description: as §2

wheat [21] = test: Test A postemergence; type: in vivo, Triticum aestivum
Description: as §2

blackgrass [22] = test: Test A preemergence; type: in vivo, Alopecurus myosuroides
Summary of the method: as §1

[23] = 125 g ai/ha, visual injury after 10 days, 0 to 100 scale, 0 is no effect, 100 is complete control
[24] = 500 g ai/ha, 0 to 100 scale (0 no effect, 100 complete control), 10 days
[25] = 125 g ai/ha, postemergence, 10 days, visual injury, 0 to 100 scale (0 no effect, 100 complete control)
[26] = 500 g ai/ha, Postemergence, 0 to 100 scale

In the case of `Cc1ccc(C(=O)N2CC(C)Oc3c(Cl)cccc32)cc1-n1cncn1` (stereo not drawn) [Compound 38], the “Plant response rating, Ragweed” value (ragweed [1]; [23]) is reported as 0, the “Plant response rating, Ragweed” value (ragweed [1]; [24]) is reported as 0 and the “Plant response rating, Oat, Wild” value (oat, wild [2]; [25]) is reported as 0. The “Plant response rating, Oat, Wild” value (oat, wild [2]; [26]) was 40, the “Plant response rating, Ducksalad” value (ducksalad) was 0 and the “Plant response rating, Kochia” value (kochia [3]; [23]) was 0. For the same molecule, the “Plant response rating, Kochia” value (kochia [3]; [24]) was 30, the “Plant response rating, Rice” value (rice) was 0 and the “Plant response rating, Ryegrass, Italian” value (ryegrass, Italian [4]; [23]) was 70. The “Plant response rating, Ryegrass, Italian” value (ryegrass, Italian [4]; [24]) was 80, the “Plant response rating, Oat, Wild” value (oat, wild [5]; [23]) was 10 and the “Plant response rating, Oat, Wild” value (oat, wild [5]; [24]) was 60. For the same molecule, the “Plant response rating, Kochia” value (kochia [6]; [25]) was 20, the “Plant response rating, Kochia” value (kochia [6]; [26]) was 60 and the “Plant response rating, Foxtail, Giant” value (foxtail, giant [7]; [23]) was 70. For the same molecule, the “Plant response rating, Foxtail, Giant” value (foxtail, giant [7]; [24]) was 100, the “Plant response rating, Ryegrass, Italian” value (ryegrass, Italian [8]; [25]) was 10 and the “Plant response rating, Ryegrass, Italian” value (ryegrass, Italian [8]; [26]) was 60. The “Plant response rating, Corn” value (corn [9]; [25]) was 20, the “Plant response rating, Corn” value (corn [9]; [26]) was 80 and the “Plant response rating, Foxtail, Giant” value (foxtail, giant [10]; [25]) was 60. The “Plant response rating, Foxtail, Giant” value (foxtail, giant [10]; [26]) was 90, the “Plant response rating, Barnyardgrass” value (barnyardgrass) was 0 and the “Plant response rating, Ragweed” value (ragweed [11]; [25]) was 0. For the same molecule, the “Plant response rating, Ragweed” value (ragweed [11]; [26]) was 0, the “Plant response rating, Wheat” value (wheat [12]; [23]) was 0 and the “Plant response rating, Wheat” value (wheat [12]; [24]) was 10. The “Plant response rating, Sedge, Umbrella” value (sedge, umbrella) was 0, the “Plant response rating, Pigweed, Palmer” value (pigweed, palmer [13]; [23]) was 10 and the “Plant response rating, Pigweed, Palmer” value (pigweed, palmer [13]; [24]) was 70. For the same molecule, the “Plant response rating, Goosegrass” value (goosegrass [14]; [23]) was 70, the “Plant response rating, Goosegrass” value (goosegrass [14]; [24]) was 100 and the “Plant response rating, Blackgrass” value (blackgrass [15]; [25]) was 0. The “Plant response rating, Blackgrass” value (blackgrass [15]; [26]) was 70, the “Plant response rating, Galium” value (galium; [25]) was 30 and the “Plant response rating, Galium” value (galium; [26]) was 50. The “Plant response rating, Soybean” value (soybean [16]; [26]) was 50, the “Plant response rating, Pigweed, Palmer” value (pigweed, palmer [17]; [25]) was 30 and the “Plant response rating, Pigweed, Palmer” value (pigweed, palmer [17]; [26]) was 50. For the same molecule, the “Plant response rating, Goosegrass” value (goosegrass [18]; [25]) was 30, the “Plant response rating, Goosegrass” value (goosegrass [18]; [26]) was 70 and the “Plant response rating, Corn” value (corn [19]; [23]) was 20. For the same molecule, the “Plant response rating, Corn” value (corn [19]; [24]) was 30, the “Plant response rating, Soybean” value (soybean [20]; [23]) was 0 and the “Plant response rating, Soybean” value (soybean [20]; [24]) was 30. The “Plant response rating, Wheat” value (wheat [21]; [25]) was 10, the “Plant response rating, Wheat” value (wheat [21]; [26]) was 70 and the “Plant response rating, Blackgrass” value (blackgrass [22]; [23]) was 30. For the same molecule, the “Plant response rating, Blackgrass” value (blackgrass [22]; [24]) was 70.
In the case of `CC1CN(C(=O)c2cccc(-n3cncn3)c2)c2cccc(C3CC3)c2O1` (stereo not drawn) [Compound 42], the “Plant response rating, Ragweed” value (ragweed [1]; [23]) is reported as 0, the “Plant response rating, Ragweed” value (ragweed [1]; [24]) is reported as 0 and the “Plant response rating, Oat, Wild” value (oat, wild [2]; [25]) is reported as 0. For the same molecule, the “Plant response rating, Oat, Wild” value (oat, wild [2]; [26]) was 10, the “Plant response rating, Ducksalad” value (ducksalad) was 0 and the “Plant response rating, Kochia” value (kochia [3]; [23]) was 0. For the same molecule, the “Plant response rating, Kochia” value (kochia [3]; [24]) was 20, the “Plant response rating, Rice” value (rice) was 0 and the “Plant response rating, Ryegrass, Italian” value (ryegrass, Italian [4]; [23]) was 50. For the same molecule, the “Plant response rating, Ryegrass, Italian” value (ryegrass, Italian [4]; [24]) was 100, the “Plant response rating, Oat, Wild” value (oat, wild [5]; [23]) was 0 and the “Plant response rating, Oat, Wild” value (oat, wild [5]; [24]) was 50. For the same molecule, the “Plant response rating, Kochia” value (kochia [6]; [25]) was 0, the “Plant response rating, Kochia” value (kochia [6]; [26]) was 80 and the “Plant response rating, Foxtail, Giant” value (foxtail, giant [7]; [23]) was 10. For the same molecule, the “Plant response rating, Foxtail, Giant” value (foxtail, giant [7]; [24]) was 90, the “Plant response rating, Ryegrass, Italian” value (ryegrass, Italian [8]; [25]) was 0 and the “Plant response rating, Ryegrass, Italian” value (ryegrass, Italian [8]; [26]) was 50. The “Plant response rating, Corn” value (corn [9]; [25]) was 10, the “Plant response rating, Corn” value (corn [9]; [26]) was 40 and the “Plant response rating, Foxtail, Giant” value (foxtail, giant [10]; [25]) was 20. For the same molecule, the “Plant response rating, Foxtail, Giant” value (foxtail, giant [10]; [26]) was 70, the “Plant response rating, Barnyardgrass” value (barnyardgrass) was 0 and the “Plant response rating, Ragweed” value (ragweed [11]; [25]) was 0. For the same molecule, the “Plant response rating, Ragweed” value (ragweed [11]; [26]) was 0, the “Plant response rating, Wheat” value (wheat [12]; [23]) was 0 and the “Plant response rating, Wheat” value (wheat [12]; [24]) was 20. For the same molecule, the “Plant response rating, Sedge, Umbrella” value (sedge, umbrella) was 0, the “Plant response rating, Pigweed, Palmer” value (pigweed, palmer [13]; [23]) was 10 and the “Plant response rating, Pigweed, Palmer” value (pigweed, palmer [13]; [24]) was 80. The “Plant response rating, Goosegrass” value (goosegrass [14]; [23]) was 30, the “Plant response rating, Goosegrass” value (goosegrass [14]; [24]) was 90 and the “Plant response rating, Blackgrass” value (blackgrass [15]; [25]) was 0. For the same molecule, the “Plant response rating, Blackgrass” value (blackgrass [15]; [26]) was 40, the “Plant response rating, Galium” value (galium; [25]) was 50 and the “Plant response rating, Galium” value (galium; [26]) was 70. For the same molecule, the “Plant response rating, Soybean” value (soybean [16]; [25]) was 70, the “Plant response rating, Soybean” value (soybean [16]; [26]) was 90 and the “Plant response rating, Pigweed, Palmer” value (pigweed, palmer [17]; [25]) was 30. The “Plant response rating, Pigweed, Palmer” value (pigweed, palmer [17]; [26]) was 10, the “Plant response rating, Goosegrass” value (goosegrass [18]; [25]) was 20 and the “Plant response rating, Goosegrass” value (goosegrass [18]; [26]) was 30. The “Plant response rating, Corn” value (corn [19]; [23]) was 0, the “Plant response rating, Corn” value (corn [19]; [24]) was 0 and the “Plant response rating, Soybean” value (soybean [20]; [23]) was 0. For the same molecule, the “Plant response rating, Soybean” value (soybean [20]; [24]) was 0, the “Plant response rating, Wheat” value (wheat [21]; [25]) was 0 and the “Plant response rating, Wheat” value (wheat [21]; [26]) was 20. The “Plant response rating, Blackgrass” value (blackgrass [22]; [23]) was 30 and the “Plant response rating, Blackgrass” value (blackgrass [22]; [24]) was 60.
